Where two headings read alike, the source gives them in different places. Marks after values point to notes of the source that are not given here. Residues, ends and D or L forms follow the SMILES beside them.

The term inhibition denotes the relative decrease from the control value, in per cent. The term IC50 denotes the concentration that inhibits the measured activity by half.

The target of one assay is DPP-IV (Homo sapiens, UniProt P27487). The assay is described as follows: DPP-IV inhibitory activity assay (GPN substrate). As to conditions: for inhibition at 2500 µM / Inhibition (%) DPP-IV: synthetic peptide at 2.5 mM (final reaction concentration). The class given is biochemical.
Another assay addresses ACE (Homo sapiens, UniProt P12821). Description: ACE inhibitory activity assay (FAPGG substrate). Type of assay: biochemical. As to conditions: for inhibition at 200 µM: read-out: Inhibition (%) ACE.
Assay [1] can be described thus: Metal chelating activity (FeCl2/ferrozine). As to conditions: reference against which IC50 values were compared.
Method: Following a 3 min dark incubation, 50 μL of 5 mM ferrozine was introduced and incubated for 20 min at ambient temperature in the absence of light. Absorbance was quantified at 562 nm. […] The chelating activity was determined using the following formula:Metal chelating activity (%) = [(Acontrol − Asample)/Acontrol] × 100
A short description of assay [2]: ABTS radical scavenging activity. As to conditions: standard against which IC50 values were compared. The protocol: The antioxidant activity was evaluated using a modified ABTS assay according to Laosam et al.. Then, ABTS stock solution was prepared by combining 7.0 mM ABTS with 2.6 mM potassium persulfate in 50 mM phosphate buffer (pH 7.4) and incubated in darkness for 12–16 h before use. Subsequently, the analysis was initiated by combining 20 μL of SDOs samples with 1980 μL of ABTS working solution (stock solution diluted with phosphate buffer to achieve an absorbance of 0.740 ± 0.020 at 734 nm). After 5 min of incubation in the dark, the absorbance was measured at 734 nm. […] With the formula below, the radical scavenging activity was calculated:Scavenging activity (%) = [(Acontrol − Asample)/Acontrol] × 100 where Acontrol and Asample represent the absorbance of control and sample, respectively.

On the set-up of assay [3]: method as in BIOPEP-UWM database. As to conditions: fragments in brackets, activities listed jointly; ref BIOPEP-UWM database; cited from earlier work.
Setting [4] is: synthetic peptide, read-out: Inhibition (IC50 Value) DPP-IV.
[5] abbreviates: synthetic peptide at 0.2 mM (final reaction concentration).
Where [6] appears, read: synthetic peptide, read-out: Inhibition (IC50 Value) ACE.

Sequence of DPP-IV (P27487 whole entry, species assumed): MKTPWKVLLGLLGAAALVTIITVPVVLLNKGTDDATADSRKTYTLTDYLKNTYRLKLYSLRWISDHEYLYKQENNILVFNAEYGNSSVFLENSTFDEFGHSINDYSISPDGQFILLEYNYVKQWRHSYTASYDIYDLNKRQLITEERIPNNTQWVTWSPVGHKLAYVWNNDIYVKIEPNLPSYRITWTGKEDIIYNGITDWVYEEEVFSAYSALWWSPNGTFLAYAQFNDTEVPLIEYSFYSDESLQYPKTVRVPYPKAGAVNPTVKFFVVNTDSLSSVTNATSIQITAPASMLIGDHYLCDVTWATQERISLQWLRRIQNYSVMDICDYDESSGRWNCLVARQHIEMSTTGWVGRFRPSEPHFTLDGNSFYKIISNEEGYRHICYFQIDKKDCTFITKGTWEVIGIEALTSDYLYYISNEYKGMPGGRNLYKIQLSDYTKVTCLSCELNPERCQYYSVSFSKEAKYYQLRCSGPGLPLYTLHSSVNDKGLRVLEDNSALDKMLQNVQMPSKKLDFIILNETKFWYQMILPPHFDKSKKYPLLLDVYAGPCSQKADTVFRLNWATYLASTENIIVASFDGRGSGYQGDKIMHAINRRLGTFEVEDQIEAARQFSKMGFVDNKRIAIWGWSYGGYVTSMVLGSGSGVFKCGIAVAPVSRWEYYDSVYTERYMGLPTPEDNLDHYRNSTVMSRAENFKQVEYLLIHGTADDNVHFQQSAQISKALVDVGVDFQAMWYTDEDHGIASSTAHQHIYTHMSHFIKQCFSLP
Sequence of ACE (P12821 30-1306, species assumed): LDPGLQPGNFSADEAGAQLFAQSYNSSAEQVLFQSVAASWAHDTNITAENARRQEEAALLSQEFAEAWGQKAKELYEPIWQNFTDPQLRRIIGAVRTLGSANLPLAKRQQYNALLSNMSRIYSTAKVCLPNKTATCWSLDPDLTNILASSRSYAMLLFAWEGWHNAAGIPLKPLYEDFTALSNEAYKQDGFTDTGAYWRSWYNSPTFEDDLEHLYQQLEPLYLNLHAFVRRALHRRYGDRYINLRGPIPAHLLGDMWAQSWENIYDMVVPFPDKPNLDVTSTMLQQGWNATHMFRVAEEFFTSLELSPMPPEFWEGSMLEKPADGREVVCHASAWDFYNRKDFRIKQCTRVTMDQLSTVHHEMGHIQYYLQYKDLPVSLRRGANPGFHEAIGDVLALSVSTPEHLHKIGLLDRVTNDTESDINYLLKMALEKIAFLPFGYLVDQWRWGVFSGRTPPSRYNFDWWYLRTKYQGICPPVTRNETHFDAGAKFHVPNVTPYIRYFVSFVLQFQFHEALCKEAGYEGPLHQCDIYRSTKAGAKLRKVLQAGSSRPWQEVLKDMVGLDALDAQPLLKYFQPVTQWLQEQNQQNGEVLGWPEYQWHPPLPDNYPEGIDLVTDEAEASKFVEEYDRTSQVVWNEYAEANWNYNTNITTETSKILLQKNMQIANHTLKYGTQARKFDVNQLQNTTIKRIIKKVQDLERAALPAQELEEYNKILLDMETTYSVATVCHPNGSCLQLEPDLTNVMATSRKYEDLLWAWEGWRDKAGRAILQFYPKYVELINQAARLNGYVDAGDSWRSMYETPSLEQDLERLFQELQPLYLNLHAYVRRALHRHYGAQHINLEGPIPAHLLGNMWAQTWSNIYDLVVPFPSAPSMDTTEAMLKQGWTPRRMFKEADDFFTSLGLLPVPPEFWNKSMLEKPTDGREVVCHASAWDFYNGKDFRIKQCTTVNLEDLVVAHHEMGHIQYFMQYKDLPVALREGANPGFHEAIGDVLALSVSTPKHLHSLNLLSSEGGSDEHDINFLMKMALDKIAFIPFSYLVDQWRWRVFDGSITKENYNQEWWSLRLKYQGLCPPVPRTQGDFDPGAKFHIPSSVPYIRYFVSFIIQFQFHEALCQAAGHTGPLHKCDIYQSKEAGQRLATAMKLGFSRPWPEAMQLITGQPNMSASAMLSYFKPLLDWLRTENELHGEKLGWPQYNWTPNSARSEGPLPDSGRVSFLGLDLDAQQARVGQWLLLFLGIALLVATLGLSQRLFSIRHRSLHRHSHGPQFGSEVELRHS

`CC(C)C[C@H](NC(=O)[C@H](CC(=O)O)NC(=O)[C@H](Cc1ccccc1)NC(=O)[C@H](Cc1ccccc1)NC(=O)[C@@H](N)CCC(=O)O)C(=O)N1CCC[C@H]1C(=O)N[C@@H](Cc1ccc(O)cc1)C(=O)N[C@@H](Cc1c[nH]cn1)C(=O)O` (H-EFFDLPYH-OH): on DPP-IV, 2500 µM produced 45.7 ± 1.86% inhibition. Moreover, the IC50 was 2760 ± 30 µM on DPP-IV (setting [4]) and 158 ± 2.2 µM at ACE (setting [6]). In addition, the inhibition at 200 µM on ACE (setting [5]) turned out to be 63.4 ± 1.6%.
The compound `CC(C)C[C@H](NC(=O)[C@H](CO)NC(=O)[C@H](C)NC(=O)[C@H](CCC(=O)O)NC(=O)[C@H](C)NC(=O)[C@@H](N)C(C)C)C(=O)N1CCC[C@H]1C(=O)N[C@@H](CCCNC(=N)N)C(=O)O` (H-VAEASLPR-OH) showed an inhibition at 2500 µM against DPP-IV of 55.2 ± 0.69%. The half-inhibitory concentration (IC50) at DPP-IV (setting [4]) came to 1920 ± 60 µM. For the same compound, at ACE (setting [5]), the inhibition at 200 µM came to 3.89 ± 0.61%.
As to `CC(C)C[C@H](NC(=O)[C@@H](N)Cc1ccc(O)cc1)C(=O)N[C@@H](Cc1ccc(O)cc1)C(=O)N[C@@H](CC(N)=O)C(=O)N[C@@H](C)C(=O)NCC(=O)N[C@@H](C)C(=O)N[C@@H](CCCNC(=N)N)C(=O)O` (H-YLYNAGAR-OH), on DPP-IV, at 2500 µM the inhibition was 37 ± 0.95%. The inhibition at 200 µM on ACE (setting [5]) was determined as 89.2 ± 1.07%. On ACE (setting [6]), the 50% inhibitory concentration (IC50) amounted to 77.28 ± 0.05 µM.
In turn, `N[C@@H](CS)C(=O)N[C@@H](CCC(=O)O)C(=O)N[C@@H](Cc1ccccc1)C(=O)O` [CEF] (H-Cys-Glu-Phe-OH) came in with an inhibition at 2500 µM at DPP-IV of 23.49 ± 0.14%. The inhibition at 200 µM on ACE is 91.67 ± 0.73%. For the same compound, the IC50 on ACE (setting [6]) is 14.86 ± 0.1 µM.
As for `O=C(O)CN(CCN(CC(=O)O)CC(=O)O)CC(=O)O` [EDTA], the “Metal chelating activity, value of the reference” value in assay [1] came to 0.31 mg/mL.
For `CC(C)C[C@H](NC(=O)[C@H](CC(C)C)NC(=O)[C@H](CC(C)C)NC(=O)[C@H](Cc1ccccc1)NC(=O)[C@@H](N)CCC(=O)O)C(=O)N[C@@H](Cc1c[nH]cn1)C(=O)N[C@@H](C)C(=O)O` [EFLLLHA] (H-EFLLLHA-OH), at 2500 µM the inhibition at DPP-IV was 40.5 ± 1.74%. Moreover, the IC50 was 3570 ± 130 µM on DPP-IV (setting [4]) and 138.3 ± 1.04 µM on ACE (setting [6]). At ACE (setting [5]), the inhibition at 200 µM was determined as 58.3 ± 0.92%.
For `CC(C)C[C@H](NC(=O)[C@H](CCC(=O)O)NC(=O)[C@H](Cc1ccc(O)cc1)NC(=O)[C@H](Cc1ccccc1)NC(=O)[C@@H](N)CCC(=O)O)C(=O)N[C@@H](C)C(=O)N[C@@H](CCCNC(=N)N)C(=O)O` [EFYELAR] (H-EFYELAR-OH), on DPP-IV, testing at 2500 µM gave an inhibition of 56.2 ± 1.55%. For the same compound, the half-maximal inhibitory concentration (IC50) on DPP-IV (setting [4]) came to 1430 ± 30 µM. The inhibition at 200 µM on ACE (setting [5]) was found to be 34 ± 2.33%.
`CC(C)C[C@H](NC(=O)[C@H](CCC(N)=O)NC(=O)[C@H](CCC(N)=O)NC(=O)[C@H](CO)NC(=O)[C@H](CC(N)=O)NC(=O)[C@@H](N)CCC(=O)O)C(=O)N[C@@H](Cc1c[nH]cn1)C(=O)O` [ENSQQLH] (H-ENSQQLH-OH) displayed an inhibition at 2500 µM against DPP-IV of 40.4 ± 4.54%. Also, the concentration for half-maximal inhibition (IC50) on DPP-IV (setting [4]) is 2540 ± 100 µM.
`CC(C)C[C@H](NC(=O)[C@H](Cc1c[nH]c2ccccc12)NC(=O)[C@@H](NC(=O)[C@H](C)NC(=O)[C@@H](N)CC(C)C)[C@@H](C)O)C(=O)N1CCC[C@H]1C(=O)N[C@@H](CCCNC(=N)N)C(=O)O` [LATWLPR] (H-LATWLPR-OH) registered an inhibition at 2500 µM on DPP-IV of 47.4 ± 1.73%. Moreover, the IC50 at DPP-IV (setting [4]) is 2030 ± 150 µM. In addition, the inhibition at 200 µM on ACE (setting [5]) is 36.1 ± 0.54%.
The corresponding values for `CC(C)C[C@H](N)C(=O)N[C@@H](Cc1ccccc1)C(=O)N[C@@H](CC(=O)O)C(=O)N[C@@H](CCC(N)=O)C(=O)N1CCC[C@H]1C(=O)N[C@@H](Cc1ccc(O)cc1)C(=O)N[C@@H](Cc1ccccc1)C(=O)O` [LFDQPYF] (H-LFDQPYF-OH) are 45 ± 2.04%, 3170 ± 170 µM and 42.4 ± 2.64%.
`CC(C)C[C@H](NC(=O)[C@H](CC(N)=O)NC(=O)CNC(=O)[C@@H](N)CC(C)C)C(=O)N[C@@H](Cc1ccc(O)cc1)C(=O)N[C@@H](CC(=O)O)C(=O)N[C@@H](Cc1ccc(O)cc1)C(=O)O` [LGNLYDY] (H-LGNLYDY-OH) registered an inhibition at 2500 µM against DPP-IV of 42.88 ± 0.09%. Also, the half-inhibitory concentration (IC50) worked out at 2940 ± 90 µM on DPP-IV (setting [4]) and 162.1 ± 1.19 µM on ACE (setting [6]). Further, at ACE (setting [5]), the inhibition at 200 µM amounted to 58.6 ± 2.61%.
On DPP-IV, `CC(C)C[C@H](NC(=O)[C@H](CC(=O)O)NC(=O)[C@H](Cc1ccccc1)NC(=O)[C@@H](N)CC(N)=O)C(=O)N1CCC[C@H]1C(=O)N[C@@H](Cc1ccc(O)cc1)C(=O)N[C@@H](Cc1c[nH]cn1)C(=O)O` [NFDLPYH] (H-NFDLPYH-OH) showed an inhibition at 2500 µM of 55.54 ± 0.34%. Further, the 50% inhibitory concentration (IC50) is 2380 ± 30 µM on DPP-IV (setting [4]) and 77.2 ± 2.7 µM on ACE (setting [6]). The inhibition at 200 µM on ACE (setting [5]) was found to be 69.53 ± 0.03%.
For `Cc1c(C)c2c(c(C)c1O)CCC(C)(C(=O)O)O2` (stereo not shown) [Trolox], the “ABTS radical scavenging, value of the standard” value in assay [2] stood at 0.27 mg/mL.
`N=C(N)NCCC[C@H](NC(=O)[C@@H]1CCCN1C(=O)[C@H](Cc1ccccc1)NC(=O)[C@H](CCC(=O)O)NC(=O)[C@H](CS)NC(=O)[C@@H](N)Cc1c[nH]c2ccccc12)C(=O)O` [WCEFPR] (H-WCEFPR-OH) showed an inhibition at 2500 µM on DPP-IV of 41.1 ± 0.43%. Further, the figures for the concentration for half-maximal inhibition (IC50) at DPP-IV (setting [4]) and at ACE (setting [6]) were 2820 ± 220 µM and 21.2 ± 1.86 µM, respectively. Further, the inhibition at 200 µM on ACE (setting [5]) stood at 75.4 ± 1.53%.
Take `CSCC[C@H](NC(=O)[C@@H](N)Cc1c[nH]c2ccccc12)C(=O)N[C@@H](Cc1c[nH]cn1)C(=O)N[C@H](C(=O)N[C@@H](CCCNC(=N)N)C(=O)O)C(C)C` [WMHVR] (H-WMHVR-OH): the inhibition at 2500 µM on DPP-IV stood at 33.1 ± 2.67%. Besides, at ACE (setting [5]), the inhibition at 200 µM came to 61.3 ± 0.88%. Moreover, the IC50 on ACE (setting [6]) was 118 ± 1.82 µM.
`CC(C)C[C@H](NC(=O)[C@H](CC(=O)O)NC(=O)[C@@H]1CCCN1C(=O)[C@@H](N)Cc1ccc(O)cc1)C(=O)N1CCC[C@H]1C(=O)N[C@@H](Cc1ccc(O)cc1)C(=O)N[C@@H](Cc1c[nH]cn1)C(=O)O` [YPDLPYH] (H-YPDLPYH-OH) gave an inhibition at 2500 µM against DPP-IV of 56.9 ± 1.47%. In addition, the IC50 at DPP-IV (setting [4]) worked out at 1350 ± 40 µM; at ACE (setting [6]), 18.1 ± 0.05 µM. The inhibition at 200 µM on ACE (setting [5]) came to 86 ± 1.66%.
On DPP-IV, `CC(C)C[C@H](NC(=O)[C@H](CC(=O)O)NC(=O)[C@@H]1CCCN1C(=O)[C@@H](N)Cc1ccc(O)cc1)C(=O)O` [YPDL] (H-YPDL-OH) gave an IC50 of 2390 ± 60 µM and an inhibition at 2500 µM of 48.3 ± 0.59%. The IC50 on ACE was > 200 µM. For the same compound, on ACE (setting [5]), the inhibition at 200 µM came to 11.8 ± 2.26%.
AEF: the “Inhibition (%) DPP-IV” value on DPP-IV is on record as 21.93 ± 0.35 ^n %. The “Inhibition (%) ACE” value at ACE (setting [5]) is listed as 6.04 ± 1.41 ^o %.
For the compound DDK, on DPP-IV, the “Inhibition (%) DPP-IV” value is given as 37.22 ± 0.43 ^ghij %.
With EFF, the “Inhibition (%) DPP-IV” value at DPP-IV is 30.57 ± 1.97 ^kl %.
Take EFL: at DPP-IV, the “Inhibition (%) DPP-IV” value is given as 38.00 ± 1.38 ^fghi %.
EFYE: the “Inhibition (%) DPP-IV” value on DPP-IV was 36.03 ± 0.51 ^ghij %.
Still for that read-out and setting: under LFD stands 33.85 ± 1.27 ^ijk %.
“LFDLMEH [SDO peptide identified in fraction F8]”: in the assay with DPP-IV, the “Inhibition (%) DPP-IV” value is 37.28 ± 0.69 ^ghij %.
As for LGN, the “Inhibition (%) DPP-IV” value on DPP-IV is on record as 35.84 ± 0.09 ^hij %. For the same compound, the “Inhibition (%) ACE” value at ACE (setting [5]) was 44.11 ± 0.96 ^g %.
Turning to MED, at DPP-IV, the “Inhibition (%) DPP-IV” value is recorded as 38.87 ± 0.64 ^fghi %.
As for MEH, on DPP-IV, the “Inhibition (%) DPP-IV” value was 37.20 ± 3.18 ^ghij %. Moreover, the “Inhibition (%) ACE” value on ACE (setting [5]) is given as 11.20 ± 0.04 ^n %.
With NPR, the “Inhibition (%) DPP-IV” value on DPP-IV is recorded as 36.70 ± 0.09 ^ghij %. The “Inhibition (%) ACE” value on ACE (setting [5]) is 17.84 ± 0.68 ^k %.
Take PYH: the “Inhibition (%) DPP-IV” value at DPP-IV is listed as 29.97 ± 0.60 ^kl %. At ACE (setting [5]), the “Inhibition (%) ACE” value is 15.69 ± 1.82 ^klm %.
On to QTA, for which the “Inhibition (%) DPP-IV” value on DPP-IV is 10.54 ± 1.90 ^o %. Moreover, at ACE (setting [5]), the “Inhibition (%) ACE” value is given as 16.48 ± 1.26 ^kl %.
Consider “QTALVELLQ [SDO peptide identified in fraction F1]”, for which the “Inhibition (%) DPP-IV” value with DPP-IV was 22.20 ± 0.26 ^n %.
Regarding WGWNPR, at DPP-IV, the “Inhibition (%) DPP-IV” value is 37.45 ± 1.55 ^ghij %. At ACE (setting [5]), the “Inhibition (%) ACE” value was 23.69 ± 2.90 ^j %.
YDY: the “Previous Reported Bioactivity of the Fragments (BIOPEP-UWM Database)” value in assay [3] is “(YDY) Antioxidative”.

(Values after PMC11818041, “Pilot-Scale Production of Sericin-Derived Oligopeptides (SDOs) from Yellow Silk Cocoons: Peptide Characterization and Specifications” (Foods, 2025).)
